Data reported in patent publication US8088791B2, “Antibacterial agents” (Biots Scientific Management Pty Ltd, priority 2006, dated 2012).
In brackets after ≈: the same amount, converted by molar mass.

What was measured:
Bacillus subtilis 168CA = assay: Minimum Inhibitory Concentration (MIC) testing, broth microdilution, Bacillus subtilis; assay type: cell-based; conditions: Bacillus subtilis 168CA; for MIC: read-out: Bacillus subtilis MICs Activity
Method: (§1) Compounds of this invention were tested for antimicrobial activity by susceptibility testing in liquid media. MICs for compounds against each strain were determined by a broth microdilution method according to the National Committee for Clinical Laboratory Standards (NCCLS) guidelines. (NCCLS. 2000. Methods for dilution antimicrobial susceptibility tests for bacteria that grow aerobically—fifth edition. Approved standard M7-A5. NCCLS, Wayne, Pa.)
(§2) Briefly, test compounds are prepared in 100 μl of 1.6% DMSO solution in multiwell plates. Several bacterial colonies from a freshly streaked plate are transferred to an appropriate rich broth, such as Mueller Hinton. The cell suspension is adjusted to an optical density of 0.09 and further diluted 1:100 with warm 2× broth. This cell suspension is dispensed into the wells containing compound solution so that the final volume is 200 μl. The plates are incubated overnight (16-20 hours) at 37° C. and turbidity is scored by eye and quantified spectrophotometrically. The MIC is defined as the lowest concentration inhibiting visible growth.
Activities were scored as ‘A’ if the MIC was ≦8 micrograms/ml, ‘B’ if the MIC was 16 to 64 micrograms/ml and ‘C’ if the MIC was greater than 64 micrograms/ml.

[1] = system: Staphylococcus aureus ATCC29213; assay: Minimum Inhibitory Concentration (MIC) testing, broth microdilution, Staphylococcus aureus; assay type: cell-based; conditions: Staphylococcus aureus ATCC29213; for MIC: read-out: Staphylococcus aureus MICs Activity
Method: as §1, §2
Some of the compounds of the Examples were also tested for activity against the pathogenic organism Staphylococcus aureus ATCC29213. […] Activities were again scored as ‘A’ if the MIC was ≦8 micrograms/ml, ‘B’ if the MIC was 16 to 64 micrograms/ml and ‘C’ if the MIC was greater than 64 micrograms/ml.

Row | MIC (Bacillus subtilis 168CA) | MIC [1] | Compound | Bacillus subtilis MICs Activity (Bacillus subtilis 168CA) | Staphylococcus aureus MICs Activity [1]
1 | < 8 µg/mL | < 8 µg/mL | NC(=O)c1c(F)ccc(OCc2cccc(-c3ccccc3)c2)c1F [Example 102, 3-(Biphenyl-3-ylmethoxy)-2,6-difluoro-benzamide] |  | 
2 | < 8 µg/mL | < 8 µg/mL | Cc1ccc2ccc(COc3ccc(F)c(C(N)=O)c3F)nc2c1 [Example 103, 3-(7-Methylquinolin-2-ylmethoxy)-2,6-difluoro-benzamide] |  | 
3 | < 8 µg/mL | < 8 µg/mL | NC(=O)c1c(F)ccc(OCc2nc3cccc(Cl)c3s2)c1F [Example 104, 2,6-Difluoro-3-(7-chloro-benzothiazol-2-ylmethoxy)-benzamide] |  | 
4 | < 8 µg/mL | < 8 µg/mL | COc1ccc(-c2csc(COc3ccc(F)c(C(N)=O)c3F)n2)cc1 [Example 105, 3-[4-(4-Methoxyphenyl)thiazol-2-ylmethoxy]-2,6-difluoro-benzamide] |  | 
5 | < 8 µg/mL | < 8 µg/mL | NC(=O)c1c(F)ccc(OCc2cccc(OC(F)(F)F)c2)c1F [Example 107, 2,6-Difluoro-3-(3-trifluoromethoxybenzyloxy)benzamide] |  | 
6 | 16 to 64 µg/mL (≈ 49.8 to 199 µM) | 16 to 64 µg/mL (≈ 49.8 to 199 µM) | COC(=O)c1cccc(COc2ccc(F)c(C(N)=O)c2F)c1 [Example 108, 3-(3-Carbamoyl-2,4-difluoro-phenoxymethyl)-benzoic acid methyl ester] |  | 
7 | < 8 µg/mL | 16 to 64 µg/mL (≈ 46.5 to 186 µM) | COc1ccc2nc(COc3ccc(F)c(C(N)=O)c3F)ccc2c1 [Example 109, 3-(6-Methoxyquinolin-2-ylmethoxy)-2,6-difluoro-benzamide] |  | 
8 | 16 to 64 µg/mL (≈ 46.1 to 184 µM) | < 8 µg/mL | NC(=O)c1c(F)ccc(OCc2nc(-c3ccccn3)cs2)c1F [Example 115, 2,6-Difluoro-3-(4-pyridin-2-yl-thiazol-2-ylmethoxy)-benzamide] |  | 
9 | 16 to 64 µg/mL (≈ 54.6 to 218 µM) | 16 to 64 µg/mL (≈ 54.6 to 218 µM) | COc1cccc(COc2ccc(F)c(C(N)=O)c2F)c1 [Example 116, 2,6-Difluoro-3-(3-methoxybenzyloxy)-benzamide] |  | 
10 | < 8 µg/mL | < 8 µg/mL | NC(=O)c1c(F)ccc(OCc2nc3cc([N+](=O)[O-])ccc3s2)c1F [Example 117, 2,6-Difluoro-3-(5-nitro-benzothiazol-2-ylmethoxy)-benzamide] |  | 
11 | < 8 µg/mL | < 8 µg/mL | CCCc1sc(COc2ccc(F)c(C(N)=O)c2F)nc1-c1ccc(OC)cc1 [Example 118, 2,6-Difluoro-3-[4-(4-methoxy-phenyl)-5-propyl-thiazol-2-ylmethoxy]-benzamide] |  | 
12 | < 8 µg/mL | < 8 µg/mL | COc1ccc2sc(COc3ccc(F)c(C(N)=O)c3F)nc2c1 [Example 119, 2,6-Difluoro-3-(5-methoxy-benzothiazol-2-ylmethoxy)-benzamide] |  | 
13 | < 8 µg/mL | < 8 µg/mL | C=CCc1sc(COc2ccc(F)c(C(N)=O)c2F)nc1-c1ccc(OC)cc1 [Example 120, 3-[5-Allyl-4-(4-methoxy-phenyl)-thiazol-2-ylmethoxy]-2,6-difluoro-benzamide] |  | 
14 | < 8 µg/mL | < 8 µg/mL | COc1ccc(-c2nc(COc3ccc(F)c(C(N)=O)c3F)sc2-c2cccnc2)cc1 [Example 121, 2,6-Difluoro-3-[4-(4-methoxy-phenyl)-5-pyridin-3-yl-thiazol-2-ylmethoxy]-benzamide] |  | 
15 | < 8 µg/mL | < 8 µg/mL | NC(=O)c1c(F)ccc(OCc2nc(CCc3ccccc3)cs2)c1F [Example 122, 2,6-Difluoro-3-(4-phenethyl-thiazol-2-ylmethoxy)-benzamide] |  | 
16 | < 8 µg/mL | < 8 µg/mL | NC(=O)c1c(F)ccc(OCc2nc3cc(Br)ccc3s2)c1F [Example 123, 3-(5-Bromo-benzothiazol-2-ylmethoxy)-2,6-difluoro-benzamide] |  | 
17 |  |  | CC(Oc1ccc(F)c(C(N)=O)c1F)c1nc2cc(Cl)ccc2s1 (stereo not shown) [Example 124, 3-[1-(5-Ohloro-benzothiazol-2-yl)-ethoxy]-2,6-difluoro-benzamide] | A (‘A’ if the MIC was ≦8 micrograms/ml) | A (‘A’ if the MIC was ≦8 micrograms/ml)
18 | < 8 µg/mL | < 8 µg/mL | COc1ccc(-c2nc(COc3ccc(F)c(C(N)=O)c3F)sc2-c2ccccn2)cc1 [Example 125, 2,6-Difluoro-3-[4-(4-methoxy-phenyl)-5-pyridin-2-yl-thiazol-2-ylmethoxy]-benzamide] |  | 
19 | < 8 µg/mL | < 8 µg/mL | C=CCc1ccc2sc(COc3ccc(F)c(C(N)=O)c3F)nc2c1 [Example 126, 3-(5-Allyl-benzothiazol-2-ylmethoxy)-2,6-difluoro-benzamide] |  | 

Row | MIC (Bacillus subtilis 168CA) | MIC [1] | Compound | Bacillus subtilis MICs Activity (Bacillus subtilis 168CA) | Staphylococcus aureus MICs Activity [1]
20 | < 8 µg/mL | < 8 µg/mL | COc1ccc(-c2nc(COc3ccc(F)c(C(N)=O)c3F)sc2-c2ccncc2)cc1 [Example 127, 2,6-Difluoro-3-[4-(4-methoxy-phenyl)-5-pyridin-4-yl-thiazol-2-ylmethoxy]-benzamide] |  | 
21 | < 8 µg/mL | 16 to 64 µg/mL (≈ 54.2 to 217 µM) | Cc1cccc(COc2ccc(F)c(C(N)=O)c2F)c1F [Example 128, 2,6-Difluoro-3-(2-fluoro-3-methyl-benzyloxy)-benzamide] |  | 
22 | < 8 µg/mL | < 8 µg/mL | Cc1ccccc1-c1nc(COc2ccc(F)c(C(N)=O)c2F)sc1Br [Example 130] |  | 
23 | < 8 µg/mL | < 8 µg/mL | NC(=O)c1c(F)ccc(OCc2coc(-c3ccccc3)n2)c1F [Example 132, 2,6-Difluoro-3-(2-phenyl-oxazol-4-ylmethoxy)-benzamide] |  | 
24 | < 8 µg/mL | < 8 µg/mL | NC(=O)c1c(F)ccc(OCc2coc(-c3cccs3)n2)c1F [Example 133, 2,6-Difluoro-3-(2-thiophen-2-yl-oxazol-4-ylmethoxy)-benzamide] |  | 
25 | 16 to 64 µg/mL (≈ 47.4 to 190 µM) | 16 to 64 µg/mL (≈ 47.4 to 190 µM) | NC(=O)c1c(F)ccc(OCc2noc(-c3cccs3)n2)c1F [Example 134, 2,6-Difluoro-3-(5-thiophen-2-yl-[1,2,4]oxadiazol-3-ylmethoxy)-benzamide] |  | 
26 | < 8 µg/mL | < 8 µg/mL | NC(=O)c1c(F)ccc(OCc2nc3cc(-c4cccc(O)c4)ccc3s2)c1F [Example 136, 2,6-Difluoro-3-[5-(3-hydroxy-phenyl)-benzothiazol-2-ylmethoxy]-benzamide] |  | 
27 |  |  | NC(=O)c1c(F)ccc(OCc2nc(Cc3ccccc3)cs2)c1F [Example 137, 3-(4-Benzyl-thiazol-2-ylmethoxy)-2,6-difluoro benzamide] | B (‘B’ if the MIC was 16 to 64 micrograms/ml) | B (‘B’ if the MIC was 16 to 64 micrograms/ml)
28 | > 64 µg/mL | > 64 µg/mL | NC(=O)c1c(F)ccc(OCc2nnc(C3CC3)s2)c1F [Example 138, 3-(5-Cyclopropyl-[1,3,4]thiadiazol-2-ylmethoxy)-2,6-difluoro-benzamide] |  | 
29 | > 64 µg/mL | < 8 µg/mL | NC(=O)c1c(F)ccc(OCc2nc3cc(-c4ccc(O)cc4)ccc3s2)c1F [Example 140, 2,6-Difluoro-3-[5-(4-hydroxy-phenyl)-benzothiazol-2-ylmethoxy]-benzamide] |  | 
30 | < 8 µg/mL | < 8 µg/mL | NC(=O)c1c(F)ccc(OCc2nc3cc(-c4ccccc4N)ccc3s2)c1F [Example 141, 3-[5-(2-Amino-phenyl)-benzothiazol-2-ylmethoxy]-2,6-difluoro-benzamide] |  | 
31 | > 64 µg/mL | < 8 µg/mL | COc1cccc(-c2ccc3sc(COc4ccc(F)c(C(N)=O)c4F)nc3c2)c1 [Example 143, 2,6-Difluoro-3-[5-(3-methoxy-phenyl)-benzothiazol-2-ylmethoxy]-benzamide] |  | 
32 |  |  | NC(=O)c1c(F)ccc(OCCn2cccn2)c1F [Example 144, 2,6-Difluoro-3-(2-pyrazol-1-yl-ethoxy) benzamide] | C (‘C’ if the MIC was greater than 64 micrograms/ml) | C (‘C’ if the MIC was greater than 64 micrograms/ml)
33 | 16 to 64 µg/mL (≈ 45.7 to 183 µM) | > 64 µg/mL | Cc1noc(C)c1-c1nc(COc2ccc(F)c(C(N)=O)c2F)no1 [Example 145, 3-[5-(3,5-Dimethyl-isoxazol-4-yl)-[1,2,4]oxadiazol-3-ylmethoxy]-2,6-difluoro-benzamide] |  | 
34 | < 8 µg/mL | 16 to 64 µg/mL (≈ 48.7 to 195 µM) | Cc1cccc2ccc(COc3ccc(F)c(C(N)=O)c3F)nc12 [Example 146, 2,6-Difluoro-3-(8-methyl-quinolin-2-ylmethoxy)-benzamide] |  | 
35 | 16 to 64 µg/mL (≈ 54.2 to 217 µM) | 16 to 64 µg/mL (≈ 54.2 to 217 µM) | Cc1cc(COc2ccc(F)c(C(N)=O)c2F)ccc1F [Example 147, 2,6-Difluoro-3-(4-fluoro-3-methyl-benzyloxy)-benzamide] |  | 
36 | < 8 µg/mL | < 8 µg/mL | Cc1ccc2sc(COc3ccc(F)c(C(N)=O)c3F)nc2c1 [Example 148, 2,6-Difluoro-3-(5-methyl-benzothiazol-2-ylmethoxy)-benzamide] |  | 
37 | < 8 µg/mL | 16 to 64 µg/mL (≈ 44.8 to 179 µM) | NC(=O)c1c(F)ccc(OCc2noc(C=Cc3ccccc3)n2)c1F [Example 149, 2,6-Difluoro-3-(5-styryl-[1,2,4]oxadiazol-3-ylmethoxy)-benzamide] |  | 
38 | < 8 µg/mL | 16 to 64 µg/mL (≈ 47.4 to 190 µM) | NC(=O)c1c(F)ccc(OCc2noc(-c3ccsc3)n2)c1F [Example 150, 2,6-Difluoro-3-(5-thiophen-3-yl-[1,2,4]oxadiazol-3-ylmethoxy)-benzamide] |  | 
